Measurements as given in paper PMC11097168, “Laburnicotides A–F: Acyclic N-Acetyl Oligopeptides from the Nematode-Cyst-Associated Fungus Laburnicola nematophila” (ACS Omega, 2024).
≈ marks a conversion by molar mass, not a printed value. Where two headings read alike, the source gives them in different places.

Tests used:
Caenorhabditis elegans = assay: Nematicidal activity; assay type: in vivo; conditions: 23 °C, 150 rpm
Description: (§1) The evaluation of antimicrobial efficacy was conducted through a serial dilution method to determine the minimum inhibitory concentrations (MICs) of isolated compounds against various Gram-positive bacteria (Bacillus subtilis (B. subtilis), Mycobacterium smegmatis (M. smegmatis), and Staphylococcus aureus), Gram-negative bacteria (Acinetobacter baumannii (A. baumannii), Chromobacterium violaceum, Escherichia coli, and Pseudomonas aeruginosa (P. aeruginosa)), and five fungal species (Candida albicans, Mucor hiemalis, Rhodotorula glutinis, Schizosaccharomyces pombe, and Wickerhamomyces anomalus), utilizing established methodologies.[16],[20],[23],[24] Methanol served as the negative control with a volume of 20 μL, while the choice of positive controls was tailored to the specific organism under investigation. For bacterial strains, oxytetracycline, ciprofloxacin, kanamycin, and gentamicin were employed as references for B. subtilis, A. baumannii, M. smegmatis, and P. aeruginosa, respectively; nystatin was the standard for all fungi. The cytotoxicity of compounds was assessed on L929 mouse fibroblast cells and KB3.1 human endocervical adenocarcinoma cells using an MTT assay. Epothilone B acted as the positive control in these experiments. Additionally, the nematicidal potential was evaluated using Caenorhabditis elegans in a 48-well flat-bottom plate, with compounds tested at concentrations of 100, 50, and 10 μg mL^–1. Samples were dissolved in methanol and added to the wells and then dried using a nitrogen stream. Subsequently, 300 μL of a suspension containing 1,000 nematodes/mL was added to the samples and incubated for 18 h at 23 °C and 150 rpm. Ivermectin, at a concentration of 1 μg mL^–1, served as the positive control, and methanol was used as the negative control. This assay was executed according to the procedures outlined by Phutthacharoen et al.[23]

[1] = system: L929 mouse fibroblast cells; assay: Cytotoxicity, MTT assay; assay type: cell-based; parameters: key: -: No effect on cell lines
Description: as §1

[2] = system: KB3.1 human endocervical adenocarcinoma cells; assay: Cytotoxicity, MTT assay; assay type: cell-based; parameters: key: -: No effect on cell lines; conditions: Human endocervical adenocarcinoma (KB3.1)
Description: as §1

Bacillus subtilis = assay: Antimicrobial activity (MIC), serial dilution; assay type: cell-based
Description: as §1

Acinetobacter baumanii = assay: Antimicrobial activity (MIC), serial dilution; assay type: cell-based
Description: as §1

Escherichia coli = assay: Antimicrobial activity (MIC), serial dilution; assay type: cell-based
Description: as §1, with “The biological activity of isolated compounds (1, 2, 4, and 5) was assessed against different fungi, bacteria, cell lines, Caenorhabditis elegans, and Chikungunya virus. The evaluation” for “The evaluation”

[3] = system: Schizosaccharomyces pombe; assay: Antimicrobial activity (MIC), serial dilution; assay type: cell-based
Description: as §1, with “The biological activity of isolated compounds (1, 2, 4, and 5) was assessed against different fungi, bacteria, cell lines, Caenorhabditis elegans, and Chikungunya virus. The evaluation” for “The evaluation”

Pichia anomala = assay: Antimicrobial activity (MIC), serial dilution; assay type: cell-based
Description: as §1, with “The biological activity of isolated compounds (1, 2, 4, and 5) was assessed against different fungi, bacteria, cell lines, Caenorhabditis elegans, and Chikungunya virus. The evaluation” for “The evaluation”

Candida albicans = assay: Antimicrobial activity (MIC), serial dilution; assay type: cell-based
Description: as §1, with “The biological activity of isolated compounds (1, 2, 4, and 5) was assessed against different fungi, bacteria, cell lines, Caenorhabditis elegans, and Chikungunya virus. The evaluation” for “The evaluation”

Mucor hiemails = assay: Antimicrobial activity (MIC), serial dilution; assay type: cell-based
Description: as §1, with “The biological activity of isolated compounds (1, 2, 4, and 5) was assessed against different fungi, bacteria, cell lines, Caenorhabditis elegans, and Chikungunya virus. The evaluation” for “The evaluation”

Staphylococcus aureus = assay: Antimicrobial activity (MIC), serial dilution; assay type: cell-based
Description: as §1, with “The biological activity of isolated compounds (1, 2, 4, and 5) was assessed against different fungi, bacteria, cell lines, Caenorhabditis elegans, and Chikungunya virus. The evaluation” for “The evaluation”

Rhodotorula glutinis = assay: Antimicrobial activity (MIC), serial dilution; assay type: cell-based
Description: as §1, with “The biological activity of isolated compounds (1, 2, 4, and 5) was assessed against different fungi, bacteria, cell lines, Caenorhabditis elegans, and Chikungunya virus. The evaluation” for “The evaluation”

Mycobacterium smegmatis = assay: Antimicrobial activity (MIC), serial dilution; assay type: cell-based
Description: as §1, with “The biological activity of isolated compounds (1, 2, 4, and 5) was assessed against different fungi, bacteria, cell lines, Caenorhabditis elegans, and Chikungunya virus. The evaluation” for “The evaluation”

Pseudomonas aeruginosa = assay: Antimicrobial activity (MIC), serial dilution; assay type: cell-based
Description: as §1, with “The biological activity of isolated compounds (1, 2, 4, and 5) was assessed against different fungi, bacteria, cell lines, Caenorhabditis elegans, and Chikungunya virus. The evaluation” for “The evaluation”

[4] = system: Chromobacterium violaceum; assay: Antimicrobial activity (MIC), serial dilution; assay type: cell-based
Description: as §1, with “The biological activity of isolated compounds (1, 2, 4, and 5) was assessed against different fungi, bacteria, cell lines, Caenorhabditis elegans, and Chikungunya virus. The evaluation” for “The evaluation”

[5] = C. elegans N2, 10 µg mL-1, 18 h, < 0: less active than the corresponding negative control
[6] = C. elegans N2, 50 µg mL-1, 18 h, < 0: less active than the corresponding negative control
[7] = C. elegans N2, 100 µg mL-1, 18 h, < 0: less active than the corresponding negative control
[8] = read-out: MIC, positive control

| Compound | Corrected Mortality (%) (Caenorhabditis elegans; [5]) | Corrected Mortality (%) (Caenorhabditis elegans; [6]) | Corrected Mortality (%) (Caenorhabditis elegans; [7]) | Cytotoxicity IC50 [1] | Cytotoxicity IC50 [2] | MIC (Bacillus subtilis) | MIC (Acinetobacter baumanii) | MIC (Escherichia coli) | MIC [3] | MIC (Pichia anomala) | MIC (Candida albicans) | MIC (Mucor hiemails) | MIC (Staphylococcus aureus) | MIC (Rhodotorula glutinis) | MIC (Mycobacterium smegmatis) | MIC (Pseudomonas aeruginosa) | MIC [4] | further results |
| --- | --- | --- | --- | --- | --- | --- | --- | --- | --- | --- | --- | --- | --- | --- | --- | --- | --- | --- |
| Ac-D-Trp-D-Leu-D-Ala-L-Phe [Compound 2] | < 0% | < 0% | < 0% | - | - | - (No inhibition up to 67 µg/mL) | - (No inhibition up to 67 µg/mL) | - (No inhibition up to 67 µg/mL) | - (No inhibition up to 67 µg/mL) | - (No inhibition up to 67 µg/mL) | - (No inhibition up to 67 µg/mL) | - (No inhibition up to 67 µg/mL) | - (No inhibition up to 67 µg/mL) | - (No inhibition up to 67 µg/mL) | - (No inhibition up to 67 µg/mL) | - (No inhibition up to 67 µg/mL) | - (No inhibition up to 67 µg/mL) |  |
| Ac-D-Trp-D-Ala^1-D-Ala^2-L-Phe [Compound 4] | 0.7 ± 2.0% | 0.1 ± 2.2% | < 0% | - | - | - (No inhibition up to 67 µg/mL) | - (No inhibition up to 67 µg/mL) | - (No inhibition up to 67 µg/mL) | - (No inhibition up to 67 µg/mL) | - (No inhibition up to 67 µg/mL) | - (No inhibition up to 67 µg/mL) | - (No inhibition up to 67 µg/mL) | - (No inhibition up to 67 µg/mL) | - (No inhibition up to 67 µg/mL) | - (No inhibition up to 67 µg/mL) | - (No inhibition up to 67 µg/mL) | - (No inhibition up to 67 µg/mL) |  |
| Ac-D-Trp-D-Leu-D-Ala [Compound 5] | < 0% | 0.5 ± 1.1% | < 0% | - | - | - (No inhibition up to 67 µg/mL) | - (No inhibition up to 67 µg/mL) | - (No inhibition up to 67 µg/mL) | - (No inhibition up to 67 µg/mL) | - (No inhibition up to 67 µg/mL) | - (No inhibition up to 67 µg/mL) | - (No inhibition up to 67 µg/mL) | - (No inhibition up to 67 µg/mL) | - (No inhibition up to 67 µg/mL) | - (No inhibition up to 67 µg/mL) | - (No inhibition up to 67 µg/mL) | - (No inhibition up to 67 µg/mL) |  |
| CNC(C)C1CCC(N)C(OC2C(N)CC(N)C(OC3OCC(C)(O)C(NC)C3O)C2O)O1 (stereo not drawn) [Gentamycin, reference compound] |  |  |  |  |  |  |  |  |  |  |  |  |  |  |  |  |  | MIC (Escherichia coli; [8]): 0.42 µg/mL (≈ 0.879 µM); MIC (Staphylococcus aureus; [8]): 0.21 µg/mL (≈ 0.44 µM); MIC (Pseudomonas aeruginosa; [8]): 0.21 µg/mL (≈ 0.44 µM); MIC [4, 8]: 1.7 µg/mL (≈ 3.56 µM) |
| Ac-D-Trp-D-Leu^1-D-Leu^2-L-Phe [Compound 1] | < 0% | < 0% | < 0% | - | - | - (No inhibition up to 67 µg/mL) | - (No inhibition up to 67 µg/mL) | - (No inhibition up to 67 µg/mL) | - (No inhibition up to 67 µg/mL) | - (No inhibition up to 67 µg/mL) | - (No inhibition up to 67 µg/mL) | - (No inhibition up to 67 µg/mL) | - (No inhibition up to 67 µg/mL) | - (No inhibition up to 67 µg/mL) | - (No inhibition up to 67 µg/mL) | - (No inhibition up to 67 µg/mL) | - (No inhibition up to 67 µg/mL) |  |
| O=C(O)c1cn(C2CC2)c2cc(N3CCNCC3)c(F)cc2c1=O [Ciprofloxacin, reference compound] |  |  |  |  |  |  |  |  |  |  |  |  |  |  |  |  |  | MIC (Acinetobacter baumanii; Acinetobacter baumannii, read-out: MIC, positive control): 0.52 µg/mL (≈ 1.57 µM) |
| CN(C)[C@@H]1C(O)=C(C(N)=O)C(=O)[C@@]2(O)C(O)=C3C(=O)c4c(O)cccc4[C@@](C)(O)[C@H]3[C@H](O)[C@@H]12 [Oxytetracycline, reference compound] |  |  |  |  |  |  |  |  |  |  |  |  |  |  |  |  |  | MIC (Bacillus subtilis; [8]): 16.6 µg/mL (≈ 36.1 µM) |
| Ivermectin [reference compound] |  |  |  |  |  |  |  |  |  |  |  |  |  |  |  |  |  | Corrected Mortality (%) (Caenorhabditis elegans; C. elegans N2, 1 µg mL-1, 18 h): 96.2 ± 2.7% |
